Experimental data published in patent US5426106A, “Pyrrolo-pyridazinone derivatives” (Merck Sharp & Dohme Limited, priority 1992, dated 1995).

What was measured:
NMDA receptors = assay: Cortical slice studies, responses to NMDA in rat cortical slice; type: cell-based; details: from righthand shift in NMDA concentration-response curves, read-out: apparent equilibrium constant (Kb) in response to NMDA
Excerpt: (§1) The compounds useful in this invention potently and selectively block responses to NMDA and/or AMPA in a brain slice from rat cortex, and inhibit the binding of agonists and antagonists to the strychnine-insensitive site present on the NMDA receptor and/or AMPA binding to rat forebrain membranes.
The effects of compounds of the invention on responses to NMDA and AMPA can be assessed using the rat cortical slice as described by Wong et al., Proc. Natl. Acad. Sci. USA, 1986, 83, 7104. The apparent equilibrium constant (Kb) is calculated from the righthand shift in the NMDA or AMPA concentration-response curves produced by the compound under test.

[1] = target: T1, strychnine-insensitive site present on the NMDA receptor (Rattus norvegicus, UniProt P35439); assay: Displacement of 3H-L-689,560 binding to the strychnine-insensitive site of rat forebrain membranes; details: 3H-L-689,560, rat forebrain membranes; read-out: concentration required to displace 50% of the specific binding (IC50)
T1 construct: NMDA receptor of rat forebrain membranes; from tissue; host or cells: rat forebrain membranes
Excerpt: as §1
The ability of test compounds to displace ^3 H-L-689,560 (trans-2-carboxy-5,7-dichloro-4-phenylaminocarbonylamino-1,2,3,4-tetrahydroquinoline) binding to the strychnine-insensitive site present on the NMDA receptor of rat forebrain membranes can be determined by the method of Grimwood et al., Proceedings of The British Pharmacological Society, July 1991, Abstract C78.

IC50 [1]: < 50 µM
SMILES: O=c1[nH]n2cccc2c(O)c1-c1ccccc1 [Example 1, 4-Hydroxy-3-phenylpyrrolo[1,2-b]pyridazin-2(1H)-one]
Kb (NMDA receptors): < 150 µM
